Test results taken from article PMC7925462, “A synthetic peptide as an allosteric inhibitor of human arginase I and II” (Molecular Biology Reports, 2021).
Where two headings read alike, the source gives them in different places. Ends that are not written are not given here.

Legend:
[1] = target: T1, human arginase I (wild-type hargI, His6-tagged) (Homo sapiens, UniProt P05089); experiment: MST binding assay, hargI
T1 construct: TEV protease site and linker (N); made in house; host or cells: E. coli BL21 (DE3) RIL
T1 sequence (P05089 with tags, fused parts or gaps): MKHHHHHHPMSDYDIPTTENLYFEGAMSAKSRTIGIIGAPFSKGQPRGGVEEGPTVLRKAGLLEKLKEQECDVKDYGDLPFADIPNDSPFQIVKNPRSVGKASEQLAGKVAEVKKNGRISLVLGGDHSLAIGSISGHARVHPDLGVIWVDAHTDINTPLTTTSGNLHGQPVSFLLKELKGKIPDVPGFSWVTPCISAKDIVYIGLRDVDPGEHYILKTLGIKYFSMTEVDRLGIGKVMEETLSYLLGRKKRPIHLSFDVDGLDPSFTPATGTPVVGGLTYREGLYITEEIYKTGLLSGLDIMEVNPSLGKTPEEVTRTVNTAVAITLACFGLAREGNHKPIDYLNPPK
Description: Microscale thermophoresis (MST)
MST measurements were performed on a Monolith NT.115 instrument (Nanotemper Technologies, GmbH). Purified His6-tagged hargI sample was labeled with the Monolith His-Tag Labeling Kit RED-tris-NTA (MO-L008) according to the protocol (Nanotemper Technologies, GmbH). All measurements were performed in triplicate in MST buffer (25 mM Tris-HCl pH 7.5, 125 mM NaCl, 1% Glycerol and 1 mM BME, 0.05% Tween-20) using standard capillaries (K002, Nanotemper Technologies, GmbH). Labeled hargI was used at a final concentration of 50 nM according to the manufacturer’s recommendations. All measurements were performed at 60% LED excitation power and 40% MST power, Laser-On time was 30 s, Laser-Off time 5 s. The peptide REGNH was titrated in 1:1 dilution starting at 2.82 μM. All binding reactions were incubated for 10 min at room temperature followed by centrifugation at 20,000 g before loading into the capillaries.
The ability of the synthetic peptide analogue (REGNH) to bind to wild-type hargI and II was examined using Microscale Thermophoresis (MST) (Nanotemper, GmbH). […] After 10 min incubation at room temperature the dose-response MST curve was measured, which yielded a clear binding curve with determined dissociation constant of 177 ± 50 μM for hargI, and 196 ± 25 μM for hargII (Fig. 2).

human arginase I (hargI) [2] = target: T2, human arginase I (hargI) (Homo sapiens, UniProt P05089); experiment: Dose-response of ABH on hargI in presence/absence of REGNH, L-arginine metabolism; format: biochemical
T2 construct: TEV protease site and linker (N); made in house; host or cells: E. coli BL21 (DE3) RIL
T2 sequence (P05089 with tags, fused parts or gaps): T1 sequence (P05089 with tags, fused parts or gaps)
Description: The Arginases activity was assessed by colorimetric measurement of produced urea. The assays were performed in 96-well plates (Greiner) using Assay buffer [100 mM Na-phosphate pH 7.4, 130 mM NaCl]. Final volume of each reaction was 60 μl, the final concentration of hargI and hargII was 50 nM in each well. Samples containing no hargI or hargII were used as negative control. The peptide inhibitor was added based on experiment setting, dose ranging from 20 mM to 9.8 μM. Each sample was pre-incubated for 30 min in a 37 °C shaking incubator (100 rpm) and the reactions were started by adding concentrated substrate buffer [Assay buffer supplemented with 100 mM L-arginine, 500 mM Glycine and 1.25 mM MnCl2]. Reactions were performed in a shaking incubator at 37 °C and quenched after 1 h using a Stop mix. The Stop mix consisted of two volumes of freshly prepared solution A [Antipyrine/ H2SO4 reagent: 5 g/L of antipyrine(1,5-dimethyl-2-phenyl-3-pyrazolone) in 50%(v/v) sulfuric acid] and one volume solution B [Oxime reagent: 0.8 g 2,3-Butanedione monoxime in 100 ml of 5%(v/v) acetic acid]. […] The color turns to brown and changes in optical density (OD) at 466 nm reflecting the production of urea were quantified using the Synergy H1 Hybrid Reader (BioTek).

[3] = test system: Arg308Ala mutant of human arginase I; details: low concentrations of guanidinium chloride, ref [17], cited from earlier work
Description: A promising avenue in arginase inhibitors research is a structural feature that shared by all mammalian arginases – the S-shaped motif at the C-terminal. The functional significance of this motif is that it accounts for 54% of intersubunit contacts. In Human Arginase I (hargI) the S-shaped motif is comprised by residues 304–322, where Arg308 is thought to play the major role, as it forms a salt bridge with Glu262. In rat liver arginase I, Arg308 also forms an intermonomer salt bridge with Asp204 from an adjacent subunit. The importance of Arg308 is supported by the di ... || The aim of the described research is to examine the effect of the peptide analogue REGNH (residue 308–312), which comprises part of the S-shape motif from the C-terminal (residue 308–322) on hargI. A previous study has shown that the C terminal tail plays a critical role in retaining trimeric protein assembly, as well as in the cooperative response of arginase in L-arginine metabolism.

[4] = test system: wild-type and truncated (terminating at Arg308 or Ala308) arginase I; details: wild-type and truncated species terminating at Arg308 or Ala308, even at higher concentrations; ref [17]; cited from earlier work
Description: A promising avenue in arginase inhibitors research is a structural feature that shared by all mammalian arginases – the S-shaped motif at the C-terminal. The functional significance of this motif is that it accounts for 54% of intersubunit contacts. In Human Arginase I (hargI) the S-shaped motif is comprised by residues 304–322, where Arg308 is thought to play the major role, as it forms a salt bridge with Glu262. In rat liver arginase I, Arg308 also forms an intermonomer salt bridge with Asp204 from an adjacent subunit. The importance of Arg308 is supported by the di ...

[5] = target: T3, human arginase II (hargII) (Homo sapiens, UniProt P78540); experiment: Enzymatic assay, L-arginine hydrolysis by hargII, colorimetric urea; format: biochemical; details: called preliminary data, read-out: IC50 (abstract)
T3 construct: The human arginase II (aa23-354, 38.3kD) fused to a His6-tag at the N-terminal; purchased USBiological Life Science, Salem, USA
T3 sequence (P78540 23-354): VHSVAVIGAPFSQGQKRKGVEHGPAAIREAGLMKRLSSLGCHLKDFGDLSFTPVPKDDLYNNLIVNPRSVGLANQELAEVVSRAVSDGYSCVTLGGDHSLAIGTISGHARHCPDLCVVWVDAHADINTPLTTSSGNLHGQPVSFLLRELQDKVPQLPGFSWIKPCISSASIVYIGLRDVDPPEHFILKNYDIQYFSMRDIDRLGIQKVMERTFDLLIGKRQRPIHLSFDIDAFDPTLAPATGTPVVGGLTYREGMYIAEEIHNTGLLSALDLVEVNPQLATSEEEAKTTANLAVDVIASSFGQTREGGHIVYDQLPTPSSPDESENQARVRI
Description: The human arginase II (aa23-354, 38.3kD) fused to a His6-tag at the N-terminal was purchased and supplied as a liquid aliquot (20 mM Tris-HCl, pH 8.0, 10% (v/v) glycerol) at −20 °C (USBiological Life Science, Salem, USA). This stock was thaw on ice, followed by high speed centrifuging before diluting to certain concentration for activity assay.
(§1) The kinetic properties of hargI and II were tested according to previously reported methods with minor modifications. The Arginases activity was assessed by colorimetric measurement of produced urea. The assays were performed in 96-well plates (Greiner) using Assay buffer [100 mM Na-phosphate pH 7.4, 130 mM NaCl]. Final volume of each reaction was 60 μl, the final concentration of hargI and hargII was 50 nM in each well. Samples containing no hargI or hargII were used as negative control. The peptide inhibitor was added based on experiment setting, dose ranging from 20 mM to 9.8 μM. Each sample was pre-incubated for 30 min in a 37 °C shaking incubator (100 rpm) and the reactions were started by adding concentrated substrate buffer [Assay buffer supplemented with 100 mM L-arginine, 500 mM Glycine and 1.25 mM MnCl2]. […] The color turns to brown and changes in optical density (OD) at 466 nm reflecting the production of urea were quantified using the Synergy H1 Hybrid Reader (BioTek).

human arginase I (hargI) [6] = target: T2, human arginase I (hargI); experiment: Kinetic assay of L-arginine metabolism in absence/presence of peptide; format: biochemical; details: 1 mM peptide REGNH, 40 mM L-arginine
Description: as §1, with “MnCl2]. Reactions were performed in a shaking incubator at 37 °C and quenched after 1 h using a Stop mix. The Stop mix consisted of two volumes of freshly prepared solution A [Antipyrine/ H2SO4 reagent: 5 g/L of antipyrine(1,5-dimethyl-2-phenyl-3-pyrazolone) in 50%(v/v) sulfuric acid] and one volume solution B [Oxime reagent: 0.8 g 2,3-Butanedione monoxime in 100 ml of 5%(v/v) acetic acid].” for “MnCl2].”, “(BioTek). […]” for “(BioTek).”

human arginase I (hargI) [7] = target: T2, human arginase I (hargI); experiment: Enzymatic assay, L-arginine hydrolysis by hargI, colorimetric urea; format: biochemical; details: called preliminary data, read-out: IC50 (abstract)
Description: as §1, with “MnCl2]. Reactions were performed in a shaking incubator at 37 °C and quenched after 1 h using a Stop mix. The Stop mix consisted of two volumes of freshly prepared solution A [Antipyrine/ H2SO4 reagent: 5 g/L of antipyrine(1,5-dimethyl-2-phenyl-3-pyrazolone) in 50%(v/v) sulfuric acid] and one volume solution B [Oxime reagent: 0.8 g 2,3-Butanedione monoxime in 100 ml of 5%(v/v) acetic acid].” for “MnCl2].”

[8] = target: T4, human arginase II (aa23-354, 38.3kD) (human, UniProt P78540 23-354, RED-tris-NTA dye labeled in the MST assay); experiment: MST; Monolith NT.115; His6-tagged arginase labeled with RED-tris-NTA at 50 nM, peptide REGNH titrated in 1:1 dilution; 25 mM Tris-HCl pH 7.5, 125 mM NaCl, 1% glycerol, 1 mM BME, 0.05% Tween-20; 10 min incubation at room temperature; triplicate; details: both partners purified
T4 construct: human arginase II, aa23-354, 38.3kD, fused to a His6-tag at the N-terminal; also called hargII; source: bought: USBiological Life Science, Salem, USA; not shown: His6, N-terminal, kept
T4 sequence (looked up): T3 sequence (P78540 23-354)

human arginase I [9] = target: T5, human arginase I (human, UniProt P05089 1-322, RED-tris-NTA dye on the His6-tag (Monolith His-Tag Labeling Kit RED-tris-NTA) in the MST assay); experiment: as above; details: both partners purified
T5 construct: human arginase I, full-length gene amplified from a commercial template plasmid (dnasu.org), cloned in pETM11; His6-tag and TEV protease site at the N-terminus; A TEV protease site lies between the His6-tag and the protein; no cleavage is described; also called hargI; hArg1; source: E. coli BL21 (DE3) RIL, purified (Ni-NTA, SEC); not shown: His6, N-terminal, kept
T5 sequence (looked up): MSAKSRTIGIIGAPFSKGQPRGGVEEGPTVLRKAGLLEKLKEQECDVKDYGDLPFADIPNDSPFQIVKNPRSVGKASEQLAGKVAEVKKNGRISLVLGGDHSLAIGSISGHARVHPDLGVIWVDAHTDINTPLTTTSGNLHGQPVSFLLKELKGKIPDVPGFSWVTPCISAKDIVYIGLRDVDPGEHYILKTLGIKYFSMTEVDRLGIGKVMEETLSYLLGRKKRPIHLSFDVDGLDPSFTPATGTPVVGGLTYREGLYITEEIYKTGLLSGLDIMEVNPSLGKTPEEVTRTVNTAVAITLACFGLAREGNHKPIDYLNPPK

[10] = target: T4, human arginase II (aa23-354, 38.3kD); experiment: cell-based or functional assay
human arginase I [11] = target: T5, human arginase I; experiment: cell-based or functional assay

For N[C@@H](CCCCB(O)O)C(=O)O [ABH, 2-(S)-amino-6-boronohexanoic acid], which Kd ([1]; MST, ABH to hargI, MST buffer pH 7.5) is on record?
The Kd was roughly 0.6 µM.

And the “binding to hargI” value ([1]; dose-dependent MST assay)?
Its value is “strong binding”.

What about the IC50 (human arginase I (hargI) [2]; ABH on hargI, printed in parentheses after 'those of the apo-enzyme', the comparison is with hargI + 1 mM REGNH) of the same molecule?
The IC50 was 1 ± 0.03 µM.

What about the “inhibition of hargI by ABH in presence of REGNH compared with apo-enzyme” value (human arginase I (hargI) [2]; hargI supplemented with 1 mM peptide REGNH) of the same molecule?
Its value is “comparable inhibition constants to those of the apo-enzyme”.

Which results are given for Cl.N=C(N)N [guanidinium chloride]?
activity of Arg308Ala mutant with Gdn+ [3]: significantly increased activity; trimeric assembly and substrate cooperativity of Arg308Ala mutant with Gdn+ [3]: restored the trimeric assembly and substrate cooperativity; activity of Arg308Ala mutant with Gdn+ ([3]; listed as Gdn^+): significantly increased; response of wild-type and truncated species to Gdn+ [4]: not responsive

Which IC50 [5] does the source give for REGNH [REGNH] here?
The IC50 was 1800 ± 100 µM.

What about the “lowering of activity with respect to apo-enzyme” value (human arginase I (hargI) [6]) of the same molecule?
Its value is “≈ 15%”.

What about the IC50 (human arginase I (hargI) [7]) of the same molecule?
The IC50 was 2400 ± 300 µM.

B1: synthetic peptide REGNH (peptide)
peptide: REGNH
notes: residues 308-312 of human arginase I, part of the S-shape motif of the C-terminal; Nothing is said of modified ends; also called peptide analogue; REGNH C-terminus analogue peptide; source: synthetic peptide; bought: Biomatik and TopPeptides, Shanghai
Which Kd [8] does the source give for B1 here?
Its Kd is 196 ± 25 µM.

And the Kd (human arginase I [9])?
The Kd was 177 ± 50 µM.

What about the “inhibition of hargII enzymatic activity (colorimetric measurement of urea from L-arginine), peptide 9.8 μM to 20 mM; IC50” value [10] of the same molecule?
The value was 1800 µM.

What about the “inhibition of hargI enzymatic activity (colorimetric measurement of urea from L-arginine), peptide 9.8 μM to 20 mM; IC50” value (human arginase I [11]) of the same molecule?
Its value is 2400 µM.
